Measurements taken from patent US6262073A, “Pharmaceutical methods of use of 5-substituted and 5,5 disubstituted-3,4-dihydroxy-2(5H)-furanones” (Oxis International Inc., priority 2000, dated 2001).

Key:
Type in all cases: biochemical
[1] = molecular target: T1, Cyclooxygenase-1 (cyclooxygenase from ram seminal vesicles) (Ovis aries, UniProt P05979); assay: Cyclooxygenase-1 screen (COX-1); conditions: 300 μM
T1 construct: cyclooxygenase from ram seminal vesicles; from tissue; host or cells: ram seminal vesicles
T1 sequence (P05979 25-600): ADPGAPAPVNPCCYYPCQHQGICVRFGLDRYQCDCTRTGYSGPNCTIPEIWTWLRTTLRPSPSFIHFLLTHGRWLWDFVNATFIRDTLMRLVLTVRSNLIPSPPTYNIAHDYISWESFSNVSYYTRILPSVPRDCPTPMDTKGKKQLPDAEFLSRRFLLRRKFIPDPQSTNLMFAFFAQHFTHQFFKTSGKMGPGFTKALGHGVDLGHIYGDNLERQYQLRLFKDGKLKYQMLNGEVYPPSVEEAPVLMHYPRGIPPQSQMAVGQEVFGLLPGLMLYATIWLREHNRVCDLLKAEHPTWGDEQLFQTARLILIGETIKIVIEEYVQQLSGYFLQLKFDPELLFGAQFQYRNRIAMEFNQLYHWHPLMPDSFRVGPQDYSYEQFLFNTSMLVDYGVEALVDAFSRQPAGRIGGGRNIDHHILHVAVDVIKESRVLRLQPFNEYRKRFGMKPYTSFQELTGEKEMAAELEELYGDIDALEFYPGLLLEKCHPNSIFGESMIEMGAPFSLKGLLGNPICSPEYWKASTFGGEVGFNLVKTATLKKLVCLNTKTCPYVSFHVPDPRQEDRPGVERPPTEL
Procedure: (§1) The compounds of the invention were screened for their anti-inflammatory activity using a series of in vitro tests the details of which are given below. The activity of various compounds against 5-lipoxygenase, cycloxygenase-1, cycloxygenase-2 and lipid peroxidase was evaluated. Results of the screening procedures are included in TABLE I, and the activity against 5-lipoxygenase at a test concentration of 1 μM in Table II.
Cyclooxygenase-1 is involved in the formation of prostaglandins and thromboxane via the oxidative metabolism of arachidonic acid. Briefly, cyclooxygenase from ram seminal vesicles is incubated with arachidonic acid (100 μm) for 2 minutes at 37° C. in the presence or absence of test compounds according to the methods of A. T. Evans et al., Biochem. Pharm. 36:2035-2037(1987) and R. Boopathy et al., Biochem J. 239:371-377 (1968). The assay is terminated by the addition of trichioroacetic acid and cyclooxygenase activity is determined by reading the absorbance at 530 nm. […]

[2] = molecular target: T2, Cyclooxygenase-2 (prostaglandin H synthetase-2) from sheep placenta (Ovis aries, UniProt P79208); assay: Cyclooxygenase-2 screen (COX-2); conditions: read-out: COX-2 percent inhibition
T2 construct: cyclooxygenase-2 from sheep placenta; from tissue; host or cells: sheep placenta
T2 sequence (P79208 17-603): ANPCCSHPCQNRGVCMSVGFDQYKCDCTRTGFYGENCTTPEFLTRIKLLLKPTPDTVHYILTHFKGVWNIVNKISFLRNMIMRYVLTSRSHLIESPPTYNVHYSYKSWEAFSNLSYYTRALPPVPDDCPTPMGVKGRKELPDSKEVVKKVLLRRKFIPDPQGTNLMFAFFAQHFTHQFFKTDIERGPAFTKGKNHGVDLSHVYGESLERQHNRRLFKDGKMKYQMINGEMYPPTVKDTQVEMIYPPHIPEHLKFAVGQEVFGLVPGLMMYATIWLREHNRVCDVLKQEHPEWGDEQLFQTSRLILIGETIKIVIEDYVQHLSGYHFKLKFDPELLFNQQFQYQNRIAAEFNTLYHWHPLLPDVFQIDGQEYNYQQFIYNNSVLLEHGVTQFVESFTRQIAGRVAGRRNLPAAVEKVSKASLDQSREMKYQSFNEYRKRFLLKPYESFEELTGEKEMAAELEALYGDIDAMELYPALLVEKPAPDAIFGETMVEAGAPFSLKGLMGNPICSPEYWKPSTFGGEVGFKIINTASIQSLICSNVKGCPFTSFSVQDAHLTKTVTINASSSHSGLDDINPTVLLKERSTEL
Procedure: as §1
Cyclooxygenase-2, also known as prostaglandin H synthetase-2, catalyzes the rate- limiting step in the synthesis of inflammatory prostaglandins. In this reaction cyclooxygenase-2 catalyzes the oxygenation of unesterified precursors to form cyclic endoperoxide derivatives, including prostaglandin H. Briefly, cyclooxygenase-2 from sheep placenta, 14 μg/assay tube, is incubated with arachidonic acid (500 μM) for 1.5 minutes at 27° C. in the absence or presence of test compounds according to the methods of A. T. Evans, et al., Biochem Pharm. […] Res. Comm. […] Compounds are screened at 300 μM.

[3] = molecular target: T3, 5-Lipoxygenase (crude enzyme preparation from rat basophilic leukemia cells, RBL-1) (Rattus norvegicus, UniProt P12527); assay: 5-Lipoxygenase screen (5-LO), 5-HETE by RIA; conditions: for inhibition at 30 µM: read-out: 5-LO percent inhibition; for inhibition at 1 µM: read-out: Percent inhibition of 5-LO, test conc. 1 μM (Table II)
T3 construct: crude enzyme preparation from rat basophilic leukemia cells (RBL-1); endogenous in cells; host or cells: rat basophilic leukemia cells (RBL-1)
T3 sequence (P12527 1-673): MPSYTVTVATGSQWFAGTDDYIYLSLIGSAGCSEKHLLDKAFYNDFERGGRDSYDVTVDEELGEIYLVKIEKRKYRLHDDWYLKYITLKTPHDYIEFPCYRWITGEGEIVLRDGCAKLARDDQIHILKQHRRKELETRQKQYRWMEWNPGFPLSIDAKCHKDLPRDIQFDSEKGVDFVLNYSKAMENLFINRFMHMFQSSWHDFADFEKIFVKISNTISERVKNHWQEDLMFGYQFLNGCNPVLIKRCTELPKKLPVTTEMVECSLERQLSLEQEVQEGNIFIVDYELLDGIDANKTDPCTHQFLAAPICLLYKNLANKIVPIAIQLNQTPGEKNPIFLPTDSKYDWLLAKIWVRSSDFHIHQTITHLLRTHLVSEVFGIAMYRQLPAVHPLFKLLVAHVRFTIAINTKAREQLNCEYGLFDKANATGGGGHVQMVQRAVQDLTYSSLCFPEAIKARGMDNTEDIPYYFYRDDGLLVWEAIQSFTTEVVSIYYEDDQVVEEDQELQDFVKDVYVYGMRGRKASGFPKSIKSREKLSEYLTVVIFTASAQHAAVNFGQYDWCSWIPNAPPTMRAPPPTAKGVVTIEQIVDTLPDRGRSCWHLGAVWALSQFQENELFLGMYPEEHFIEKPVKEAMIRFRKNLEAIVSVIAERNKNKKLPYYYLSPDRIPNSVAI
Procedure: as §1
5-Lipoxygenase catalyzes the oxidative metabolism of arachidonic acid to […] (5-HETE), the initial reaction leading to the formation of the leukotrienes. Briefly, the testing procedure utilizes a crude enzyme preparation from rat basophilic leukemia cells (RBL-1) according to the methods of T. Shimuzu et al. Pro. […] Test compounds are pre-incubated with the enzyme preparation for 5 minutes at room temperature and the reaction is initiated by the addition of arachidonic acid. Following an 8 minute incubation at room temperature, the reaction is terminated by the addition of citric acid and concentrations of 5-HETE are determined by RIA. Compounds are screened at 30 μM.

[4] = test system: Lipid peroxidation (rat liver microsomes); assay: Lipid peroxidation screen (LPO), CCl4-induced, liver microsomes; conditions: for LPO percent inhibition: 300 μM
Procedure: as §1
Lipid peroxidation is a consequence of various stimuli, including reactive free radicals. Polyunsaturated fatty acids associated with plasma membranes are degraded due to enzymatic induction by reactive agents such as CCl4, leading to cellular damage. Briefly, microsomes are prepared from rat livers and the protein concentration is determined according to the method of D. Mansuy et al., Biochem. Biophys. Res. Comm. 135:1015-1021(1986). A reaction mixture consisting of 2 mg of the microsomal preparation, an NADPH generating system, 20 mM CCl4 and test compound are incubated for 12 minutes at 37° C. The reaction is terminated by the addition of a mixture of thiobarbituric acid and trichloroacetic acid. The absorbance is read at 535 nm and is proportional to the concentration of malondialdehyde. Compounds are screened at 300 μM.

Row | IC50 ([4]; reference compound under screen conditions) [µM] | Structure (SMILES) | COX-1 percent inhibition [1] [%] | inhibition at 300 µM [2] [%] | inhibition at 30 µM [3] [%] | LPO percent inhibition [4] [%] | inhibition at 1 µM [3] [%]
1 | – | CC1(c2ccccc2)OC(=O)C(O)=C1O (centres unmarked) [Example 1, 3,4-Dihydroxy-5-methyl-5-phenyl-2(5H)-furanone] | -12 | 3 | 58 | 63 | –
2 | – | CC(C)Cc1ccc(C2(C)OC(=O)C(O)=C2O)cc1 (centres unmarked) [Example 3, 3,4-Dihydroxy-5-methyl-5-[4-(2-methylpropyl)phenyl]-2(5H)-furanone] | 2 | -4 | 99 | 78 | –
3 | – | CC1(c2ccc(Cl)cc2)OC(=O)C(O)=C1O (centres unmarked) [Example 4, 5-(4-Chlorophenyl)-3,4-dihydroxy-5-methyl-2(5H)-furanone] | 2 | 24 | 2 | 54 | –
4 | – | O=C1OC(CCOc2ccc(Oc3ccccc3)cc2)C(O)=C1O (centres unmarked) [Example 15, 3,4-Dihydroxy-5-[2-(4-phenoxy)phenoxyethyl]-2(5H)-furanone] | 9 | -4 | 100 | -5 | 52
5 | – | O=C1OC(CCOc2ccc3oc(-c4ccccc4)cc(=O)c3c2)C(O)=C1O (centres unmarked) [Example 16, 3,4-Dihydroxy-5-[2-(flavone-6-oxy)ethyl]-2(5H)-furanone] | 17 | 2 | 100 | 76 | 54
6 | – | O=C1OC(CCOc2ccc3oc4ccccc4c3c2)C(O)=C1O (centres unmarked) [Example 17, 5-[2-(Dibenzofuran-2-oxy)ethyl]-3,4-dihydroxy-2(5H)-furanone] | 17 | 21 | 99 | 74 | 60
7 | – | O=C1OC(CCOc2cccc3ccccc23)C(O)=C1O (centres unmarked) [Example 18, 3,4-Dihydroxy-5-[2-(1-naphthoxy)ethyl]-2(5H)-furanone] | 11 | -12 | 99 | 71 | 49
8 | – | O=C1OC(CCN2C(=O)c3cccc4cccc(c34)C2=O)C(O)=C1O (centres unmarked) [Example 19, 3,4-Dihydroxy-5-[2-(1,8-naphthalimide)-N-ethyl]-2(5H)-furanone] | 9 | 2 | 86 | 68 | –
9 | – | O=C1OC(CCN2c3cccc4cccc(c34)S2(=O)=O)C(O)=C1O (centres unmarked) [Example 20, 3,4-Dihydroxy-5-[2-(1,8-naphthosultam)-N-ethyl]-2(5H)-furanone] | -15 | 13 | 91 | 61 | 38
10 | – | O=C1OC(CCOc2ccccc2Cc2ccccc2)C(O)=C1O (centres unmarked) [Example 21, 3,4-Dihydroxy-5-[2-(diphenylmethane-2-oxy)ethyl]-2(5H)-furanone] | 12 | 10 | 101 | 68 | 62
11 | – | O=C1OC(CCOc2ccc(-c3ccccc3)cc2)C(O)=C1O (centres unmarked) [Example 22, 5-[2-((1,1'-Biphenyl)-4-oxy)ethyl]-3,4-dihydroxy-2(5H)-furanone] | 18 | 10 | 99 | 74 | 55
12 | – | O=C1OC(CCOc2ccc3ccccc3n2)C(O)=C1O (centres unmarked) [Example 23, 3,4-Dihydroxy-5-[2-(quinoline-2-oxy)ethyl]-2(5H)-furanone] | – | -2 | 93 | – | –
13 | – | O=C1OC(CCSc2cccc3ccccc23)C(O)=C1O (centres unmarked) [Example 25, 3,4-Dihydroxy-5-[2-(naphthyl-1-thio)ethyl]-2(5H)-furanone] | 6 | 19 | 102 | 74 | 56
14 | – | O=C1OC(CCSc2ccc3ccccc3c2)C(O)=C1O (centres unmarked) [Example 26, 3,4-Dihydroxy-5-[2-(naphthyl-2-thio)ethyl]-2(5H)-furanone] | 12 | 12 | 101 | 77 | 54
15 | – | O=C1OC(CCC#Cc2ccccc2)C(O)=C1O (centres unmarked) [Example 27, 3,4-Dihydroxy-5-[(4-phenyl)-3-butynyl]-2(5H)-furanone] | 5 | 20 | 42 | 59 | –
16 | 280 | Cc1c(C)c2c(c(C)c1O)CCC(C)(CCCC(C)CCCC(C)CCCC(C)C)O2 (stereo not drawn) [alpha-tocopherol, reference compound] | – | – | – | – | –
